# Laboratory results from ChEMBL document CHEMBL1201861, “Genomics of Drug Sensitity in Cancer screening data, Wellcome Trust Sanger Institute”.
# Experiments:
# Assay in all cases: cells
# HCC2157 = type: functional, cell-based; details: Homo sapiens;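 also: growth inhibition of the cancer cell line, read out as cell viability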
# Description: SANGER: Inhibition of human HCC2157 cell growth in a cell viability assay.
# SW780 = type: functional, cell-based, Homo sapiens; details: Homo sapiens, SW780;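 also: growth inhibition of the cells, read out with a cell viability assay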
# Description: SANGER: Inhibition of human SW780 cell growth in a cell viability assay.
# SAS = type: functional, cell-based, Homo sapiens; details: Homo sapiens, SAS;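 also: growth inhibition of SAS cells, read out with a cell viability assay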
# Description: SANGER: Inhibition of human SAS cell growth in a cell viability assay.
# NCI-N87 = type: functional, cell-based, Homo sapiens; details: Homo sapiens, NCI-N87;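 also: growth inhibition of human NCI-N87 cells, read out with a cell viability assay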
# Description: SANGER: Inhibition of human NCI-N87 cell growth in a cell viability assay.
# EFM-19 = type: functional, cell-based, Homo sapiens; details: Homo sapiens, EFM-19;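 also: growth inhibition of human EFM-19 cells, measured in a cell viability assay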
# Description: SANGER: Inhibition of human EFM-19 cell growth in a cell viability assay.
# DMS-273 = type: functional, cell-based, Homo sapiens; details: Homo sapiens, DMS-273
# Description: SANGER: Inhibition of human DMS-273 cell growth in a cell viability assay.
# RCM-1 = type: functional, cell-based, Homo sapiens; details: Homo sapiens, RCM-1;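 also: growth inhibition of the RCM-1 line, determined with a cell viability readout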
# Description: SANGER: Inhibition of human RCM-1 cell growth in a cell viability assay.
# FTC-133 = type: functional, cell-based, Homo sapiens; details: Homo sapiens, FTC-133
# KINGS-1 = type: functional, cell-based, Homo sapiens; details: Homo sapiens, KINGS-1;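 also: cell viability assay measuring suppression of KINGS-1 cell growth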
# Description: SANGER: Inhibition of human KINGS-1 cell growth in a cell viability assay.
# HCC 2998 = type: functional, cell-based, Homo sapiens; details: Homo sapiens, HCC 2998;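 also: growth inhibition of human HCC2998 cells, measured with a cell viability read-out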
# Description: SANGER: Inhibition of human HCC2998 cell growth in a cell viability assay.
# KMOE-2 = type: functional, cell-based; details: Homo sapiens;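 also: growth inhibition of human KMOE-2 cells, read out with a cell viability assay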
# Description: SANGER: Inhibition of human KMOE-2 cell growth in a cell viability assay.
# NCI-H292 = type: functional, cell-based, Homo sapiens; details: Homo sapiens, NCI-H292;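 also: growth inhibition of NCI-H292 cells, read out with a cell viability assay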
# Description: SANGER: Inhibition of human NCI-H292 cell growth in a cell viability assay.
# LB771-HNC = type: functional, cell-based, Homo sapiens; details: Homo sapiens, LB771-HNC;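 also: growth inhibition of LB771-HNC human cells, read out with a cell viability assay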
# Description: SANGER: Inhibition of human LB771-HNC cell growth in a cell viability assay.
# BB30-HNC = type: functional, cell-based, Homo sapiens; details: Homo sapiens, BB30-HNC;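 also: growth inhibition of the cultured cell line, read out by a cell viability assay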
# Description: SANGER: Inhibition of human BB30-HNC cell growth in a cell viability assay.
# SK-MEL-1 = type: functional, cell-based; details: Homo sapiens;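 also: growth inhibition of human SK-MEL-1 cells, read out by a cell viability assay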
# Description: SANGER: Inhibition of human SK-MEL-1 cell growth in a cell viability assay.
# ACHN = type: functional, cell-based, Homo sapiens; details: Homo sapiens, ACHN;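 also: cell viability read-out used to gauge how strongly growth of human ACHN cells is suppressed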
# Description: SANGER: Inhibition of human ACHN cell growth in a cell viability assay.
# TE-8 = type: functional, cell-based, Homo sapiens; details: Homo sapiens, TE-8;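 also: growth inhibition of TE-8 cells, measured with a cell viability readout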
# Description: SANGER: Inhibition of human TE-8 cell growth in a cell viability assay.
# SW1783 = type: functional, cell-based; details: Homo sapiens;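 also: cell growth inhibition measured with a viability assay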
# Description: SANGER: Inhibition of human SW1783 cell growth in a cell viability assay.
# SW 954 = type: functional, cell-based, Homo sapiens; details: Homo sapiens, SW 954;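 also: growth inhibition of SW954 human cancer cells, read out as cell viability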
# Description: SANGER: Inhibition of human SW954 cell growth in a cell viability assay.
# MDA-MB-231 = type: functional, cell-based, Homo sapiens; details: Homo sapiens, MDA-MB-231
# Description: SANGER: Inhibition of human MDA-MB-231 cell growth in a cell viability assay.
# MZ7-mel = type: functional, cell-based, Homo sapiens; details: Homo sapiens, MZ7-mel;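 also: growth inhibition of human MZ7-mel cells, measured by a cell viability assay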
# Description: SANGER: Inhibition of human MZ7-mel cell growth in a cell viability assay.
# HAL-01 = type: functional, cell-based; details: Homo sapiens;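 also: growth inhibition of human HAL-01 cells, read out with a cell viability assay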
# Description: SANGER: Inhibition of human HAL-01 cell growth in a cell viability assay.
# SW1088 = type: functional, cell-based, Homo sapiens; details: Homo sapiens, SW1088;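 also: growth inhibition of human SW1088 cells, read out by a cell viability assay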
# Description: SANGER: Inhibition of human SW1088 cell growth in a cell viability assay.
# HT-29 = type: functional, cell-based, Homo sapiens; details: Homo sapiens, HT-29;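 also: growth inhibition of human HT-29 cells, read out by a cell viability assay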
# Description: SANGER: Inhibition of human HT-29 cell growth in a cell viability assay.
# T84 = type: functional, cell-based, Homo sapiens; details: Homo sapiens, T84;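 also: growth inhibition measured with a cell viability readout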
# Description: SANGER: Inhibition of human T84 cell growth in a cell viability assay.
# BB65-RCC = type: functional, cell-based, Homo sapiens; details: Homo sapiens, BB65-RCC;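 also: growth inhibition of the cell line, measured with a cell viability assay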
# Description: SANGER: Inhibition of human BB65-RCC cell growth in a cell viability assay.
# NCI-H1395 = type: functional, cell-based, Homo sapiens; details: Homo sapiens, NCI-H1395;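 also: cell viability assay read-out quantifying reduced proliferation of human NCI-H1395 cells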
# Description: SANGER: Inhibition of human NCI-H1395 cell growth in a cell viability assay.
# U-87 MG = type: functional, cell-based, U-87MG ATCC; details: Homo sapiens;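 also: growth inhibition of the cells measured with a viability assay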
# Description: SANGER: Inhibition of human U-87-MG cell growth in a cell viability assay.
# SF-539 = type: functional, cell-based, Homo sapiens; details: Homo sapiens, SF-539;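 also: Read-out is a cell viability assay, with IC50 reflecting inhibition of cell growth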
# Description: SANGER: Inhibition of human SF539 cell growth in a cell viability assay.
# HT-144 = type: functional, cell-based, Homo sapiens; details: Homo sapiens, HT-144
# Description: SANGER: Inhibition of human HT-144 cell growth in a cell viability assay.
# RPMI-7951 = type: functional, cell-based, Homo sapiens; details: Homo sapiens, RPMI-7951
# Description: SANGER: Inhibition of human RPMI-7951 cell growth in a cell viability assay.
# KYSE-510 = type: functional, cell-based, Homo sapiens; details: Homo sapiens, KYSE-510;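 also: cell viability readout used to measure how strongly growth of the cell line is suppressed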
# Description: SANGER: Inhibition of human KYSE-510 cell growth in a cell viability assay.
# RKO = type: functional, cell-based, Homo sapiens; details: Homo sapiens, RKO;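 also: growth inhibition of human RKO cells, read out with a cell viability assay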
# Description: SANGER: Inhibition of human RKO cell growth in a cell viability assay.
# RPMI-8226 = type: functional, cell-based; details: Homo sapiens
# Description: SANGER: Inhibition of human RPMI-8226 cell growth in a cell viability assay.
# DB = type: functional, cell-based; details: Homo sapiens
# Description: SANGER: Inhibition of human DB cell growth in a cell viability assay.
# NCI-H1155 = type: functional, cell-based; details: Homo sapiens;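 also: cell growth inhibition measured by a viability assay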
# Description: SANGER: Inhibition of human NCI-H1155 cell growth in a cell viability assay.
# IGR-1 = type: functional, cell-based, Homo sapiens; details: Homo sapiens, IGR-1;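 also: growth inhibition of human IGR-1 cells, read out with a cell viability assay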
# Description: SANGER: Inhibition of human IGR-1 cell growth in a cell viability assay.
# TE-1 = type: functional, cell-based, Homo sapiens; details: Homo sapiens, TE-1;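 also: growth inhibition of the human TE-1 cell line, read out with a cell viability assay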
# Description: SANGER: Inhibition of human TE-1 cell growth in a cell viability assay.
# NTERA-2-cl-D1 = type: functional, cell-based, Homo sapiens; details: Homo sapiens, NTERA-2-cl-D1;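 also: inhibition of cell growth, measured with a cell viability assay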
# Description: SANGER: Inhibition of human NTERA-S-cl-D1 cell growth in a cell viability assay.
# MZ1-PC = type: functional, cell-based, Homo sapiens; details: Homo sapiens, MZ1-PC;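 also: cell viability assay measuring growth inhibition of human MZ1-PC cells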
# Description: SANGER: Inhibition of human MZ1-PC cell growth in a cell viability assay.
# Panc1005 = type: functional, cell-based, Homo sapiens; details: Homo sapiens, Panc1005;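 also: growth inhibition of human PANC-10-05 cells, measured by a cell viability assay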
# Description: SANGER: Inhibition of human PANC-10-05 cell growth in a cell viability assay.
# 8505C = type: functional, cell-based, Homo sapiens; details: Homo sapiens, 8505C
# Description: SANGER: Inhibition of human 8505C cell growth in a cell viability assay.
# CAKI-1 = type: functional, cell-based, Homo sapiens; details: Homo sapiens, CAKI-1;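 also: growth inhibition of CAKI-1 cells, measured by a cell viability assay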
# Description: SANGER: Inhibition of human CAKI-1 cell growth in a cell viability assay.
# TK-10 = type: functional, cell-based, Homo sapiens; details: Homo sapiens, TK-10;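 also: growth inhibition of TK-10 cells, read out in a cell viability assay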
# Description: SANGER: Inhibition of human TK10 cell growth in a cell viability assay.
# ATN-1 = type: functional, cell-based; details: Homo sapiens;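 also: growth inhibition of human ATN-1 cells, read out with a cell viability assay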
# Description: SANGER: Inhibition of human ATN-1 cell growth in a cell viability assay.
# L-363 = type: functional, cell-based; details: Homo sapiens
# Description: SANGER: Inhibition of human L-363 cell growth in a cell viability assay.
# SH-4 = type: functional, cell-based, Homo sapiens; details: Homo sapiens, SH-4;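 also: growth inhibition of SH-4 cells, read out with a cell viability assay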
# Description: SANGER: Inhibition of human SH-4 cell growth in a cell viability assay.
# KOSC-2 = type: functional, cell-based, Homo sapiens; details: Homo sapiens, KOSC-2;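 also: growth inhibition of KOSC-2 cells, read out by a cell viability assay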
# Description: SANGER: Inhibition of human KOSC-2 cell growth in a cell viability assay.
# SK-MEL-30 = type: functional, cell-based; details: Homo sapiens;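 also: growth inhibition of SK-MEL-30 cells, determined with a cell viability assay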
# Description: SANGER: Inhibition of human SK-MEL-30 cell growth in a cell viability assay.
# NCI-H1793 = type: functional, cell-based, Homo sapiens; details: Homo sapiens, NCI-H1793;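 also: cell growth inhibition, read out by a cell viability assay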
# Description: SANGER: Inhibition of human NCI-H1793 cell growth in a cell viability assay.
# EOL1 = type: functional, cell-based; details: Homo sapiens;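 also: growth inhibition of EoL-1 cells, read out by a cell viability assay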
# Description: SANGER: Inhibition of human EoL-1-cell cell growth in a cell viability assay.
# LXF-289 cell line = type: functional, cell-based, Homo sapiens; details: Homo sapiens, LXF-289
# Description: SANGER: Inhibition of human LXF-289 cell growth in a cell viability assay.
smiles,measurement,setting,value
Cc1cnc(-c2cnc(NCCNc3ccc(C#N)cn3)nc2-c2ccc(Cl)cc2Cl)[nH]1 [LADUVIGLUSIB],IC50,HCC2157,> 2560 nM
same,IC50,SW780,> 2560 nM
same,IC50,SAS,> 2560 nM
same,IC50,NCI-N87,> 2560 nM
same,IC50,EFM-19,> 2560 nM
same,IC50,DMS-273,> 2560 nM
same,IC50,RCM-1,> 2560 nM
same,IC50,FTC-133,> 2560 nM
same,IC50,KINGS-1,> 2560 nM
same,IC50,HCC 2998,> 2560 nM
same,IC50,KMOE-2,> 2560 nM
same,IC50,NCI-H292,> 2560 nM
same,IC50,LB771-HNC,> 2560 nM
same,IC50,BB30-HNC,> 2560 nM
same,IC50,SK-MEL-1,> 2560 nM
same,IC50,ACHN,> 2560 nM
same,IC50,TE-8,> 2560 nM
same,IC50,SW1783,> 2560 nM
same,IC50,SW 954,> 2560 nM
same,IC50,MDA-MB-231,> 2560 nM
same,IC50,MZ7-mel,> 2560 nM
same,IC50,HAL-01,> 2560 nM
same,IC50,SW1088,> 2560 nM
same,IC50,HT-29,> 2560 nM
same,IC50,T84,> 2560 nM
same,IC50,BB65-RCC,> 2560 nM
same,IC50,NCI-H1395,> 2560 nM
same,IC50,U-87 MG,> 2560 nM
same,IC50,SF-539,> 2560 nM
same,IC50,HT-144,> 2560 nM
same,IC50,RPMI-7951,> 2560 nM
same,IC50,KYSE-510,> 2560 nM
same,IC50,RKO,> 2560 nM
same,IC50,RPMI-8226,> 2560 nM
same,IC50,DB,> 2560 nM
same,IC50,NCI-H1155,> 2560 nM
same,IC50,IGR-1,> 2560 nM
same,IC50,TE-1,> 2560 nM
same,IC50,NTERA-2-cl-D1,> 2560 nM
same,IC50,MZ1-PC,> 2560 nM
same,IC50,Panc1005,> 2560 nM
same,IC50,8505C,> 2560 nM
same,IC50,CAKI-1,> 2560 nM
same,IC50,TK-10,> 2560 nM
same,IC50,ATN-1,> 2560 nM
same,IC50,L-363,> 2560 nM
same,IC50,SH-4,> 2560 nM
same,IC50,KOSC-2,> 2560 nM
same,IC50,SK-MEL-30,> 2560 nM
same,IC50,NCI-H1793,> 2560 nM
same,IC50,EOL1,> 2560 nM
same,IC50,LXF-289 cell line,> 2560 nM
O=C(c1cc(Cc2n[nH]c(=O)c3ccccc23)ccc1F)N1CCN(C(=O)C2CC2)CC1 [OLAPARIB],IC50,SW780,> 5000 nM
same,IC50,SAS,> 5000 nM
same,IC50,NCI-N87,> 5000 nM
same,IC50,EFM-19,> 5000 nM
same,IC50,DMS-273,> 5000 nM
same,IC50,RCM-1,> 5000 nM
same,IC50,FTC-133,> 5000 nM
same,IC50,KINGS-1,> 5000 nM
same,IC50,HCC 2998,> 5000 nM
same,IC50,KMOE-2,> 5000 nM
same,IC50,NCI-H292,> 5000 nM
same,IC50,LB771-HNC,> 5000 nM
same,IC50,BB30-HNC,> 5000 nM
same,IC50,SK-MEL-1,> 5000 nM
same,IC50,ACHN,> 5000 nM
same,IC50,TE-8,> 5000 nM
same,IC50,SW1783,> 5000 nM
same,IC50,SW 954,> 5000 nM
same,IC50,MDA-MB-231,> 5000 nM
same,IC50,MZ7-mel,> 5000 nM
same,IC50,HAL-01,> 5000 nM
same,IC50,SW1088,> 5000 nM
same,IC50,HT-29,> 5000 nM
same,IC50,T84,> 5000 nM
same,IC50,BB65-RCC,> 5000 nM
same,IC50,NCI-H1395,> 5000 nM
same,IC50,U-87 MG,> 5000 nM
same,IC50,SF-539,> 5000 nM
same,IC50,HT-144,> 5000 nM
same,IC50,RPMI-7951,> 5000 nM
same,IC50,KYSE-510,> 5000 nM
same,IC50,RKO,> 5000 nM
same,IC50,RPMI-8226,> 5000 nM
same,IC50,DB,3650 nM
same,IC50,NCI-H1155,> 5000 nM
same,IC50,IGR-1,> 5000 nM
same,IC50,TE-1,> 5000 nM
same,IC50,NTERA-2-cl-D1,1330 nM
same,IC50,MZ1-PC,> 5000 nM
same,IC50,Panc1005,> 5000 nM
same,IC50,8505C,> 5000 nM
same,IC50,CAKI-1,> 5000 nM
same,IC50,TK-10,> 5000 nM
same,IC50,ATN-1,> 5000 nM
same,IC50,L-363,> 5000 nM
same,IC50,SH-4,> 5000 nM
same,IC50,KOSC-2,> 5000 nM
same,IC50,SK-MEL-30,> 5000 nM
same,IC50,NCI-H1793,> 5000 nM
same,IC50,EOL1,564 nM
same,IC50,LXF-289 cell line,> 5000 nM
